This is an account of results in US20190209506A1, “METHODS OF REDUCING OR PREVENTING OXIDATION OF LDL OR LIPID MEMBRANES IN A SUBJECT IN NEED THEREOF” (Amarin Pharmaceuticals Ireland Limited, priority 2018, published 2019).

What all share (assay type): biochemical
Assay [1] in a line: Glucose-induced membrane lipid peroxidation (LOOH, CHOD-iodide assay) in DLPC/cholesterol vesicles (Examples 4, 5). Conditions: for inhibition of the peroxidative effects of glucose (LOOH formation) / effect on LOOH formation / lipid peroxidation: 1:30 drug-to-phospholipid mole ratio; for effect on LOOH formation / lipid peroxidation: 72- and 96-hour time points. The protocol: All test compounds were further diluted in ethanol or aqueous buffer as needed. Glucose was prepared in saline buffer (0.5 mM HEPES, 154 mM NaCl, pH 7.3) at 11.0 mM (200 mg/dL). CHOD-iodide color reagent (stock) was prepared, with slight modification, as described by from El-Saadani et al. (J. […] Samples were shell-dried under nitrogen gas and placed under vacuum for 1 h to remove residual solvent. […] Lipid suspensions were then vortexed for 3 min at ambient temperature to form MLVs. All MLV samples were subjected to time-dependent autoxidation by incubating at 37° C. in an uncovered, shaking water bath. This method allows lipid peroxidation to occur gradually without requiring the use of exogenous initiators. Small aliquots (5-100 μL) of each sample were removed, immediately following MLV preparation (0 hour) and after exposing samples to oxidative conditions for 72 or 96 hour, and combined with 1.0 mL of activated CHOD-iodide color reagent. Aliquot volume was reduced with each successive time point to ensure that spectrophotometric readings were within the optimal adsorption range. Test samples were covered and incubated in darkness at room temperature for at least 4 hr. Sample absorbances were then measured against a CHOD blank at 365 nm using a Beckman DU-640 spectrophotometer. The CHOD colorimetric assay is based on the oxidation of iodide (I^−) by lipid hydroperoxide (LOOH) to form triiodide the quantity of which is directly proportional to the amount of LOOH present in the lipid sample. The molar absorptivity (ε) of I3^− is 2.46×10^4 M^−1 cm^−1 at 365 nm. […] All MLV samples were subjected to time-dependent autoxidation by incubating at 37° C. in an uncovered, shaking water bath. This method allows lipid peroxidation to occur gradually without requiring the use of exogenous initiators. Small aliquots (5-100 μL) of each sample were removed, immediately following MLV preparation (0 hr) and after exposing samples to oxidative conditions for 72 or 96 hr, and combined with 1.0 mL of activated CHOD-iodide color reagent. Aliquot volume was reduced with each successive time point to ensure that spectrophotometric readings were within the optimal adsorption range. Test samples were covered and incubated in darkness at room temperature for at least 4 hr. Sample absorbances were then measured against a CHOD blank at 365 nm using a Beckman DU-640 spectrophotometer. […] The molar absorptivity (ε) of I3^− is 2.46×10^4 M^−1 cm^−1 at 365 nm.

Assay [2] has as its system human LDL. Nature of the assay: Copper-induced oxidation of unfractionated LDL, TBARS (Example 7). Conditions: 1 hour. The protocol:
An experiment to study the antioxidant effect of EPA in LDL and small dense LDL (“sdLDL”) was performed. LDL and sdLDL were isolated from the plasma of healthy volunteers by iodixanol density gradient ultracentrifugation, and adjusted to a final apolipoprotein concentration of 2 mg/mL. […] Vitamin E was also incubated with sample aliquots as a positive control.

The test system of assay [3] is human LDL. Nature of the assay: Copper-induced oxidation of unfractionated LDL, TBARS after 2 hr (Example 6). On the procedure: Venous blood was collected from healthy volunteers into vacutainer tubes containing sodium EDTA. Plasma was separated by centrifugation at 3000 g for 25 min at 4° C. and adjusted to a density of 1.020 g/mL with KBr. Triglyceride-rich lipoproteins (TGRL) and LDL fractions were then isolated by sequential centrifugation at 70,000 rpm at 4° C. in a Beckman LE-80 ultracentrifuge using a Beckman 50.4Ti rotor (Beckman Coulter, Inc., Fullerton, Calif.). The TGRL fraction (with a relative density of <1.020) was aspirated from the top of the centrifugate and discarded, leaving an LDL-enriched infranate (with a relative density of 1.020 to 1.063). The plasma LDL fraction was further fractionated into LDL1, LDL2, LDL3, and LDL4 (sdLDL) subfractions with relative densities of 1.020 to 1.035, 1.035 to 1.050, 1.050 to 1.063, and 1.063 to 1.075, respectively. The sdLDL subfraction was retained for additional experimentation. Plasma and lipoprotein fractions were maintained at 4° C. and protected from excessive exposure to light. […]
LDL and sdLDL subfractions (0.6 mL each) were incubated with either 10 μL vehicle (ethanol) or 10 μL drug stock solution for 30 min to 1 hr at 37° C. […] Sample TBARS concentrations were determined spectrophotometrically by measuring sample absorbances against a standard curve derived from the hydrolysis of 1,1,3,3-tetramethoxypropane.

Assay [4] has as its system human sdLDL. Nature of the assay: Copper-induced sdLDL oxidation, TBARS (Example 7).
Experimental: An experiment to study the antioxidant effect of EPA in LDL and small dense LDL (“sdLDL”) was performed. LDL and sdLDL were isolated from the plasma of healthy volunteers by iodixanol density gradient ultracentrifugation, and adjusted to a final apolipoprotein concentration of 2 mg/mL. […] Lipid oxidation was initiated with 10 μM CuSO4 and monitored by the colorimetric detection of thiobarbituric acid reactive substances (TBARS) for 1 hr. Vitamin E was also incubated with sample aliquots as a positive control.
For assay [5], the system named is human sdLDL. Nature of the assay: Glucose-induced sdLDL oxidation, MDA/TBARS (Example 10). The settings on record: glucose 200 mg/dL. The protocol:
Vitamin E (α-tocopherol) purchased from Sigma-Aldrich was prepared in ethanol at 1.0 mM (ε=3.06×10^4M^−1 cm^−1 at 294 nm) prior to experimental use. Test compounds were further diluted in ethanol or aqueous buffer as needed. Phosphate Buffered Saline (PBS) purchased from Sigma-Aldrich was prepared in double distilled water at 10 mM (138 mM NaCl, 2.7 mM KCl, pH 7.4). Glucose prepared in PBS was added to test samples to achieve a final concentration of 11.0 mM (200 mg/dL).
LDL and sdLDL were isolated from the plasma of healthy volunteers by iodixanol density gradient ultracentrifugation and adjusted to a final apolipoprotein concentration of 10 mg/mL. […] Sample aliquots were incubated at 100° C. for 30 minutes and then assayed for the formation of thiobarbituric acid-reactive substances (TBARS), having a molar absorptivity (ε) value of 1.56×10^5 M^−1 cm^−1 at 532 nm and were derived principally from the reaction of thiobarbituric acid with malondialdehyde (MDA). Lipid oxidation was measured by the colorimetric detection of malondialdehyde (MDA), a marker of oxidative stress.

The test system of assay [6] is human sdLDL. Nature of the assay: Copper-induced sdLDL oxidation, TBARS after 2 hr (Example 6). The protocol:
Venous blood was collected from healthy volunteers into vacutainer tubes containing sodium EDTA. Plasma was separated by centrifugation at 3000 g for 25 min at 4° C. and adjusted to a density of 1.020 g/mL with KBr. Triglyceride-rich lipoproteins (TGRL) and LDL fractions were then isolated by sequential centrifugation at 70,000 rpm at 4° C. in a Beckman LE-80 ultracentrifuge using a Beckman 50.4Ti rotor (Beckman Coulter, Inc., Fullerton, Calif.). The TGRL fraction (with a relative density of <1.020) was aspirated from the top of the centrifugate and discarded, leaving an LDL-enriched infranate (with a relative density of 1.020 to 1.063). The plasma LDL fraction was further fractionated into LDL1, LDL2, LDL3, and LDL4 (sdLDL) subfractions with relative densities of 1.020 to 1.035, 1.035 to 1.050, 1.050 to 1.063, and 1.063 to 1.075, respectively. The sdLDL subfraction was retained for additional experimentation. Plasma and lipoprotein fractions were maintained at 4° C. and protected from excessive exposure to light. Prior to oxidation experiments, EDTA was removed from the lipoprotein fraction using PD-10 desalting columns (GE Healthcare, Piscataway N.J.). After equilibration of the column with phosphate buffered saline (PBS), 2.5 mL of the lipoprotein fraction was loaded on the column and the flow-through discarded. The lipoprotein was then eluted with 3 mL of PBS. The LDL fractions were further diluted with PBS to obtain a 100 μg/mL apoB100 concentration.
LDL and sdLDL subfractions (0.6 mL each) were incubated with either 10 μL vehicle (ethanol) or 10 μL drug stock solution for 30 min to 1 hr at 37° C. Oxidation was initiated by the addition of 10 μM CuSO4. After 2 hr, 100 μL aliquots were removed from each subfraction and combined with 1.0 mL thiobarbituric acid (0.5%), 10 μL trichloroacetic acid (5%), 10 μL BHT (5 mg/mL in methanol), and 10 μL EDTA (5 mM). […]. Sample TBARS concentrations were determined spectrophotometrically by measuring sample absorbances against a standard curve derived from the hydrolysis of 1,1,3,3-tetramethoxypropane.

Structures are written as SMILES. “And” between values parts separate entries of the source, which are not always exact repeats. Identical values can stand only once.

For the molecule `CC/C=C\C/C=C\C/C=C\C/C=C\C/C=C\CCCC(=O)O` [EPA, cis-5,8,11,14,17-eicosapentaenoic acid], the “antioxidant effect (LOOH formation)” value in assay [1] (1.0 μM, glucose 200 mg/dL, 96 hours) was “separate and potent antioxidant effects”. Also, the “inhibition of the peroxidative effects of glucose (LOOH formation)” value in assay [1] (glucose 200 mg/dL, 72 hours) is on record as 88%; in assay [1] (glucose 200 mg/dL, 96 hours) it was 86%. Further, in assay [1] (glucose), the “effect on LOOH formation / lipid peroxidation” value was “significantly inhibited LOOH formation”. The “effect on membrane LOOH formation” value in assay [1] (EPA at 1.0 and 5.0 μM, glucose) was “inhibit membrane LOOH formation in a dose-dependent manner”. Also, the “LOOH formation compared to vehicle, glucose only, glucose and EA, glucose and ETE” value in assay [1] (Example 5, model membranes treated with glucose) is listed as “significantly less LOOH formation”. The “inhibition of TBARS formation compared to vehicle-treated control” value in the assay on human LDL [2] (highest treatment concentration (10)) is given as greater than 90%. The “reduction of TBARS levels” value in the assay on human LDL [3] (highest concentration tested (10.0), unfractionated LDL) stood at 17%. In the assay on human sdLDL [4] (1.0 μM, 1 hr, vs vehicle), the “inhibition of sdLDL oxidation” value is reported as 19±8%. Further, the “inhibition of TBARS formation / sdLDL oxidation” value with human sdLDL [4] (10 μM, 1 hr, vs vehicle, 10 µM) is 93±2% and 92±8%. In addition, in the assay on human sdLDL [4] (10.0 μM, after 4 hours), the “effect on sdLDL oxidation compared to vehicle or DHA” value is recorded as “significantly inhibited sdLDL oxidation”. The IC50 was roughly 2 µM in the assay on human sdLDL [4] (1 hr) and less than 1 µM with human sdLDL [5]. In the assay with human sdLDL [5] (10.0 μM), the “inhibition of sdLDL oxidation compared to vehicle controls” value turned out to be 94%. Further, in the assay on human sdLDL [5] (10.0 μM), the “sdLDL oxidation (formation of MDA)” value is 0.2 ± 0.1 µM. For the same molecule, the “reduction of TBARS levels compared to vehicle-treated controls” value with human sdLDL [6] (10.0 μM) amounted to 57%; in the assay with human sdLDL [6] (lowest dose tested (1.0)) it was 13%.
Regarding `Cc1c(C)c2c(c(C)c1O)CC[C@@](C)(CCC[C@H](C)CCC[C@H](C)CCCC(C)C)O2` [vitamin E, α-tocopherol, reference compound], the “effect on LOOH formation / lipid peroxidation” value in assay [1] (glucose) is on record as “no significant effect on lipid peroxidation”. Moreover, in the assay on human LDL [2] (10 μM), the “effect on unfractionated LDL oxidation” value is recorded as “no significant effect on unfractionated LDL oxidation”. In the assay on human LDL [3] (1.0 μM to 10.0 μM, data not shown), the “effect on LDL oxidation” value was “did not inhibit LDL oxidation at any concentration”. For the same molecule, the “effect on sdLDL oxidation compared to vehicle-treated controls” value in the assay with human sdLDL [4] (10 μM, 1 hour) is listed as “no significant effect on sdLDL oxidation”. In the assay with human sdLDL [5] (10 μM, 1 hr), the “effect on glucose-induced sdLDL oxidation” value is recorded as “failed to inhibit sdLDL oxidation” and the “increase of sdLDL oxidation compared to glucose-treated controls” value is reported as 63%. In addition, the “reduction of TBARS levels compared to vehicle-treated controls” value in the assay with human sdLDL [6] (10.0 μM) was determined as 26%. In the assay on human sdLDL [6] (concentrations 1.0 μM to 10.0 μM), the “effect on sdLDL oxidation” value is reported as “did not inhibit sdLDL oxidation except at the highest concentration”.

In general, IC50 refers to the concentration that gives 50% inhibition. Read a low IC50 as higher potency.
